Data from PubChem BioAssay AID330 (DTP/NCI, 2004).
Several values for one entry are separate records, joined by “and”; a condition that tells them apart may be missing. Equal entries are not always repeated. Inconclusive results and toxic doses are left out. Peptide text beside a SMILES is read from it. * marks the point of attachment. Bz = O=C(c1ccccc1)*; Bn = c1ccc(C*)cc1; βAla = NCCC(=O)O

Test system: P388 leukemia ip, CD2F1 mice, survival T/C
Experiment: NCI In Vivo Anticancer Drug Screen. Data for tumor model P388 Leukemia (intraperitoneal) in CD2F1 (CDF1) mice
Details: endpoint: median survival time, higher = longer survival
Summary of the method: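 Mice carrying the transplanted tumor received test compound or vehicle. Survival was recorded in each group, and the value is the treated-group measurement divided by that of the vehicle-treated control group.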

[1] = dose: 50.0 mg/kg/injection, schedule: Q01DX005 (ip), vehicle: Klucel (hydroxypropylcellulose) (HPC)
[2] = dose: 100.0 mg/kg/injection, schedule: Q01DX005 (ip), vehicle: Klucel (hydroxypropylcellulose) (HPC)
[3] = dose: 12.5 mg/kg/injection, schedule: Q01DX005 (ip), vehicle: Klucel (hydroxypropylcellulose) (HPC)
[4] = dose: 50.0 mg/kg/injection, schedule: Q01DX009 (ip), vehicle: saline with Tween-80
[5] = dose: 100.0 mg/kg/injection, schedule: Q01DX009 (ip), vehicle: saline with Tween-80
[6] = dose: 12.5 mg/kg/injection, schedule: Q01DX009 (ip), vehicle: distilled water + Tween-80

C[N+]1(C)CCC(OC(=O)C(O)(c2ccccc2)C2CCCC2)C1 (configuration not stated) was tested, and the T/C (dose: 12.5 mg/kg/injection, schedule: Q01DX009 (ip), vehicle: Klucel (hydroxypropylcellulose) (HPC)) was 95 % of control, the T/C (dose: 25.0 mg/kg/injection, schedule: Q01DX009 (ip), vehicle: Klucel (hydroxypropylcellulose) (HPC)) was 97 % of control and the T/C (dose: 25.0 mg/kg/injection, schedule: Q04DX003 (ip), vehicle: saline with Tween-80) was 105 % of control. For the same molecule, the T/C (dose: 50.0 mg/kg/injection, schedule: Q01DX009 (ip), vehicle: Klucel (hydroxypropylcellulose) (HPC)) was 89 % of control and 95 % of control, the T/C (dose: 50.0 mg/kg/injection, schedule: Q04DX003 (ip), vehicle: saline with Tween-80) was 102 % of control and the T/C (dose: 100.0 mg/kg/injection, schedule: Q04DX003 (ip), vehicle: saline with Tween-80) was 99 % of control.
With O=C(O)C(CS)NC1CC(=O)N(Cc2ccccc2)C1=O (configuration not stated) the T/C [1] was 110 % of control, the T/C [2] was 103 % of control and the T/C (dose: 200.0 mg/kg/injection, schedule: Q01DX005 (ip), vehicle: Klucel (hydroxypropylcellulose) (HPC)) was 103 % of control.
For [CH3][Sn]([CH3])([n]1cnc2ccccc21)[n]1cnc2ccccc21, the T/C (dose: 3.12 mg/kg/injection, schedule: Q01DX005 (ip), vehicle: Klucel (hydroxypropylcellulose) (HPC)) was 111 % of control, the T/C (dose: 6.25 mg/kg/injection, schedule: Q01DX005 (ip), vehicle: Klucel (hydroxypropylcellulose) (HPC)) was 115 % of control and the T/C [3] was 118 % of control.
In the case of Cc1c(C)c2c(c(C)c1OP(=O)(N1CC1)N1CC1)CCC(C)(CCCC(C)CCCC(C)CCCC(C)C)O2 (configuration not stated), the T/C [4] is reported as 105 % of control, the T/C [5] is reported as 105 % of control and the T/C (dose: 200.0 mg/kg/injection, schedule: Q01DX009 (ip), vehicle: saline with Tween-80) is reported as 102 % of control.
In the case of CN1C(=O)Cc2ccccc2C1=O, the T/C (dose: 12.5 mg/kg/injection, schedule: Q01DX009 (ip), vehicle: saline) is reported as 103 % of control, the T/C (dose: 25.0 mg/kg/injection, schedule: Q01DX009 (ip), vehicle: saline) is reported as 101 % of control and the T/C (dose: 50.0 mg/kg/injection, schedule: Q01DX009 (ip), vehicle: saline) is reported as 119 % of control. For the same molecule, the T/C (dose: 100.0 mg/kg/injection, schedule: Q01DX009 (ip), vehicle: saline) was 103 % of control.
In the case of COc1ccc2c(C)cc(N/N=C(\C)c3cn(C)n(-c4ccccc4)c3=O)nc2c1, the T/C [3] is reported as 98 % of control, the T/C (dose: 25.0 mg/kg/injection, schedule: Q01DX005 (ip), vehicle: Klucel (hydroxypropylcellulose) (HPC)) is reported as 95 % of control and the T/C [1] is reported as 101 % of control and 93 % of control. For the same molecule, the T/C [2] was 110 % of control.
In the case of COC(=O)C(CSCc1ccccc1)NC(=O)C(CSCc1ccccc1)NC(=O)CCNC(=O)c1ccccc1 (configuration not stated) ({Bz-βAla}-Cys(Bn)-Cys(Bn)-OMe; configuration not given here), the T/C [6] is reported as 92 % of control, the T/C (dose: 25.0 mg/kg/injection, schedule: Q01DX009 (ip), vehicle: distilled water + Tween-80) is reported as 89 % of control and the T/C (dose: 50.0 mg/kg/injection, schedule: Q01DX009 (ip), vehicle: distilled water + Tween-80) is reported as 90 % of control. For the same molecule, the T/C (dose: 100.0 mg/kg/injection, schedule: Q01DX009 (ip), vehicle: distilled water + Tween-80) was 94 % of control.
In the case of CS(=O)CC(=N\O)/C(CS(C)=O)=N\O (configuration not stated), the T/C (dose: 60.0 mg/kg/injection, schedule: Q01DX005 (ip), vehicle: saline) is reported as 104 % of control, the T/C (dose: 120.0 mg/kg/injection, schedule: Q01DX005 (ip), vehicle: saline) is reported as 108 % of control and the T/C (dose: 240.0 mg/kg/injection, schedule: Q01DX005 (ip), vehicle: saline) is reported as 103 % of control.
For CCOC(=O)/C=C/C(=O)NNC(=O)OC(C)(C)C, the T/C (dose: 12.5 mg/kg/injection, schedule: Q01DX009 (ip), vehicle: other) was 99 % of control, the T/C (dose: 25.0 mg/kg/injection, schedule: Q01DX009 (ip), vehicle: other) was 93 % of control and the T/C (dose: 50.0 mg/kg/injection, schedule: Q01DX009 (ip), vehicle: other) was 101 % of control. For the same molecule, the T/C (dose: 100.0 mg/kg/injection, schedule: Q01DX009 (ip), vehicle: other) was 119 % of control and the T/C (dose: 200.0 mg/kg/injection, schedule: Q01DX009 (ip), vehicle: other) was 108 % of control.
CCN1C(=O)Nc2ccc(Cl)cc2C1(O)c1ccccc1 (configuration not stated) was tested, and the T/C (dose: 25.0 mg/kg/injection, schedule: Q01DX009 (ip), vehicle: saline with Tween-80) was 95 % of control, the T/C [4] was 102 % of control and the T/C [5] was 99 % of control.
In the case of CNC(=O)OCc1c(COC(=O)NC)c(-c2ccccc2)n(C)c1-c1ccccc1, the T/C (dose: 10.0 mg/kg/injection, schedule: Q01DX009 (ip), vehicle: distilled water + Tween-80) is reported as 164 % of control, the T/C [6] is reported as 181 % of control and the T/C (dose: 20.0 mg/kg/injection, schedule: Q01DX009 (ip), vehicle: distilled water + Tween-80) is reported as 205 % of control. For the same molecule, the T/C (dose: 40.0 mg/kg/injection, schedule: Q01DX009 (ip), vehicle: distilled water + Tween-80) was 124 % of control.
